The values below come from patent publication US7138411B2, “Substituted benzopyran derivatives for the treatment of inflammation” (G.D. Searle & Co., priority 1997, dated 2006).

For one series, the target named is T1, COX-2 (UniProt P35354).
T1 sequence (P35354 1-604): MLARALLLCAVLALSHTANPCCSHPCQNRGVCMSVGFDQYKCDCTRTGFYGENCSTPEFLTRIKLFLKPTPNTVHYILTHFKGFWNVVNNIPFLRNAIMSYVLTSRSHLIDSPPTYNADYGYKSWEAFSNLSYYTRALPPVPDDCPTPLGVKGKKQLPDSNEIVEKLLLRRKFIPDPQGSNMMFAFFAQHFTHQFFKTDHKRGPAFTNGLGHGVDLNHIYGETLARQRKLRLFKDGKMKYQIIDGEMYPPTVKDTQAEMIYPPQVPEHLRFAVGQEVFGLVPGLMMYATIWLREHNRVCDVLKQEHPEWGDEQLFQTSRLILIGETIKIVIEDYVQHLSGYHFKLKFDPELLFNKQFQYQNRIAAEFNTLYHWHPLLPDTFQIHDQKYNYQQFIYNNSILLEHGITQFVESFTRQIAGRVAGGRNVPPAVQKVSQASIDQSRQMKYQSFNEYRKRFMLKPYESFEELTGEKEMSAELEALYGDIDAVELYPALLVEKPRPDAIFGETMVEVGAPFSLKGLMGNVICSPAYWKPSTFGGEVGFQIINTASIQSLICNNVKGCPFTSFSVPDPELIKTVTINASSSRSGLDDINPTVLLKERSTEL
Kind of series: Fast assay for COX-2 activity (PGE2 ELISA). The series is classed as biochemical, human or murine. The following applies: fast assay: 10 min pre-incubation at 25° C., reaction stopped after two minutes, pH 7.5.

For the compound `Cc1ccc2c(c1C)OC(C(F)(F)F)C(C(=O)O)=C2` (stereo not shown) [Example 22, 7,8-Dimethyl-2-trifluoromethyl-2H-1-benzopyran-3-carboxylic acid], the melting point is 245.2 to 247.3 °C. This compound came in with an IC50 against COX-2 of over 100 µM.

For the compound `O=C(O)C1=Cc2ccc(-c3ccccc3)cc2OC1C(F)(F)F` (stereo not shown) [Example 26, 7-Phenyl-2-trifluoromethyl-2H-1-benzopyran-3-carboxylic acid], the melting point lay in the range of 209.4 to 211.7 °C. Also, at COX-2, the IC50 is over 100 µM. For `O=C(O)C1=Cc2cc(C(=O)Cc3ccccc3)ccc2OC1C(F)(F)F` (stereo not shown) [Example 59, 6-Phenylacetyl-2-trifluoromethyl-2H-1-benzopyran-3-carboxylic acid], the melting point lay in the range of 159 to 164 °C. Moreover, it took 43 µM to reach half-maximal inhibition on COX-2 (IC50). The matching figures for `O=C(O)C1=Cc2cc(Cl)c(Oc3ccc([N+](=O)[O-])cc3)cc2OC1C(F)(F)F` (stereo not shown) [Example 203, 6-Chloro-7-(4-nitrophenoxy)-2-(trifluoromethyl)-2H-1-benzopyran-3-carboxylic acid]: 246.4 to 248.3 °C and under 0.1 µM. `O=C(O)C1=Cc2cccc(-c3ccccc3)c2OC1C(F)(F)F` (stereo not shown) [Example 21, 8-Phenyl-2-trifluoromethyl-2H-1-benzopyran-3-carboxylic acid]: the melting point was 171.6 to 175 °C. The compound also displayed an IC50 on COX-2 of 11 µM.

For the compound `O=C(O)C1=Cc2c(Cl)cc(Cl)cc2OC1C(F)(F)F` (stereo not shown) [Example 18, 5,7-Dichloro-2-trifluoromethyl-2H-1-benzopyran-3-carboxylic acid], the melting point lay within 190.1 to 191.2 °C. At COX-2, this compound showed an IC50 of 12 µM. `O=C(O)C1=Cc2cc(Br)ccc2OC1C(F)(F)F` (stereo not shown) [Example 13, 6-Bromo-2-trifluoromethyl-2H-1-benzopyran-3-carboxylic acid] yielded a melting point of 189.6 to 190.9 °C. The compound further returned an IC50 against COX-2 of 0.3 µM. The matching figures for `O=C(O)C1=Cc2cc(F)cc(Br)c2OC1C(F)(F)F` (stereo not shown) [Example 43, 8-Bromo-6-fluoro-2-trifluoromethyl-2H-1-benzopyran-3-carboxylic acid]: over 300 °C and 99 µM. Taken in the same sequence, the figures for `O=C(O)C1=Cc2cccc(Cl)c2OC1C(F)(F)F` (stereo not shown) [Example 14, 8-Chloro-2-trifluoromethyl-2H-1-benzopyran-3-carboxylic acid] were 224.5 to 225.6 °C and over 100 µM. Taken in the same sequence, the figures for `CCc1cc(Cl)cc2c1OC(C(F)(F)F)C(C(=O)O)=C2` (stereo not shown) [Example 29, 6-Chloro-8-ethyl-2-trifluoromethyl-2H-1-benzopyran-3-carboxylic acid] were 197.2 to 199.1 °C and under 0.1 µM. `O=C(O)C1=Cc2c(ccc3ccccc23)OC1C(F)(F)F` (stereo not shown) [Example 63] showed a melting point of 244.7 to 249.8 °C. Further, the midpoint of inhibition on COX-2, the IC50, lay at 1.4 µM. Taken in the same sequence, the figures for `Cc1cc2c(cc1Cl)C=C(C(=O)O)C(C(F)(F)F)O2` (stereo not shown) [Example 6, 6-Chloro-7-methyl-2-trifluoromethyl-2H-1-benzopyran-3-carboxylic acid] were 207.5 to 209.3 °C and under 0.1 µM. Taken in the same sequence, the figures for `CC(C)c1ccc2c(c1)OC(C(F)(F)F)C(C(=O)O)=C2` (stereo not shown) [Example 25, 7-(1-Methylethyl)-2-trifluoromethyl-2H-1-benzopyran-3-carboxylic acid] were 158.3 to 159.7 °C and over 100 µM. On to `CC(C)c1cc(Cl)cc2c1OC(C(F)(F)F)C(C(=O)O)=C2` (stereo not shown) [Example 103, 6-Chloro-8-(1-methylethyl)-2-trifluoramethyl-2H-1-benzopyran-3-carboxylic acid], for which half-maximal inhibition against COX-2 (IC50) was put at 36 µM. Compound `O=C(O)C1=Cc2cc(Cl)cnc2NC1C(F)(F)F` (stereo not shown) [Example 174, 6-Chloro-2-(triflouromethyl)-1,2-dihydro[1,8]napthyridine-3-carboxylic acid] registered a melting point of 287.4 to 288.4 °C. On the same count and under the same terms, then `CC(C)(C)c1ccc2c(c1)C=C(C(=O)O)C(C(F)(F)F)O2` (stereo not shown) [Example 89, 6-(1,1-Dimethylethyl)-2-(trifluoromethyl)-2H-1-benzopyran-3-carboxylic acid], with 170.6 to 173.2 °C. Same read-out and setting: then `CCN(CC)S(=O)(=O)c1ccc2c(c1)C=C(C(=O)O)C(C(F)(F)F)O2` (stereo not shown) [Example 58, 6-N,N-Diethylaminosulfonyl-2-trifluoromethyl-2H-1-benzopyran-3-carboxylic acid], with 238 to 240 °C. Compound `CCc1cc2c(cc1Cl)C=C(C(=O)O)C(C(F)(F)F)O2` (stereo not shown) [Example 27, 6-Chloro-7-ethyl-2-trifluoromethyl-2H-1-benzopyran-3-carboxylic acid] returned a melting point of 170.7 to 172.1 °C. Besides, the IC50 against COX-2 was determined as 67 µM. `CS(=O)(=O)c1ccc(-c2cc(Cl)cc3c2OC(C(F)(F)F)C(C(=O)O)=C3)cc1` (stereo not shown) [Example 128, 6-Chloro-8-[(4-methylsulfonyl)phenyl]-2-(trifluoromethyl)-2H-1-benzopyran-3-carboxylic acid] yielded a melting point of 286.5 to 287.8 °C. Still for that read-out and setting: then `O=C(O)C1=Cc2cc(F)c(F)cc2NC1C(F)(F)F` (stereo not shown) [Example 159, 6,7-Difluoro-1,2-dihydro-2-(trifluoromethyl)-3-quinolinecarboxylic acid], with 186.6 to 188.9 °C. Still for that read-out and setting: then `O=C(O)C1=Cc2cc(F)cc(F)c2OC1C(F)(F)F` (stereo not shown) [Example 41, 6,8-Difluoro-2-trifluoromethyl-2H-1-benzopyran-3-carboxylic acid], with 207 to 211 °C; and `CCN(CC)c1ccc2c(c1)OC(C(F)(F)F)C(C(=O)O)=C2` (stereo not shown) [Example 48, 7-(N,N-Diethylamino)-2-trifluoromethyl-2H-1-benzopyran-3-carboxylic acid], with 214.4 to 215.4 °C. Same read-out and setting: then `O=C(O)C1=Cc2ccc(Br)cc2OC1C(F)(F)F` (stereo not shown) [Example 5, 7-Bromo-2-trifluoromethyl-2H-1-benzopyran-3-carboxylic acid], with 198.4 to 199.5 °C; and `O=C(O)C1=Cc2c(Cl)ccc(Cl)c2OC1C(F)(F)F` (stereo not shown) [Example 87, 5,8-Dichloro-2-(trifluoromethyl)-2H-1-benzopyran-3-carboxylic acid], with 205.7 to 207.1 °C. `O=C(O)C1=Cc2cc(Cl)c(Oc3cccc(Cl)n3)cc2OC1C(F)(F)F` (stereo not shown) [Example 199, 6-Chloro-7-[(6-chloro-2-pyridinyl)oxy]-2-(trifluoromethyl)-2H-1-benzopyran-3-carboxylic acid] registered a melting point of 226.4 to 227.4 °C. For the same compound, the IC50 against COX-2 was under 0.1 µM. The matching figures for `CNS(=O)(=O)c1ccc2c(c1)C=C(C(=O)O)C(C(F)(F)F)O2` (stereo not shown) [Example 52, 6-(Methylamino)sulfonyl-2-trifluoromethyl-2H-1-benzopyran-3-carboxylic acid]: 207.6 to 208.6 °C and 20 µM. `O=C(O)C1=Cc2cc(S(=O)(=O)Cc3ccccc3)ccc2OC1C(F)(F)F` (stereo not shown) [Example 70, 6-[(Phenylmethyl)sulfonyl]-2-(trifluoromethyl)-2H-1-benzopyran-3-carboxylic acid] registered a melting point of 172 to 176 °C. Turning to `Cc1ccc2c(c1)C=C(C(=O)O)C(C(F)(F)F)S2` (stereo not shown) [Example 145, 6-Methyl-2-(trifluoromethyl)-2H-1-benzothiopyran-3-carboxylic acid], the melting point lay in the range of 180.8 to 184.2 °C. `CN(C)S(=O)(=O)c1ccc2c(c1)C=C(C(=O)O)C(C(F)(F)F)O2` (stereo not shown) [Example 50, 6-[(Dimethylamino)sulfonyl]-2-trifluoromethyl-2H-1-benzopyran-3-carboxylic acid] showed a melting point of 201.2 to 202.5 °C. The same compound registered an IC50 at COX-2 of 79 µM. `Cc1cccc2c1SC(C(F)(F)F)C(C(=O)O)=C2` (stereo not shown) [Example 150, 8-Methyl-2-(trifluoromethyl)-2H-1-benzothiopyran-3-carboxylic acid] had a melting point of 224 to 225 °C. `O=C(O)C1=Cc2cc(Cl)c(Oc3ccc(Cl)c(F)c3)cc2OC1C(F)(F)F` (stereo not shown) [Example 205, 6-Chloro-7-(4-chloro-3-fluorophenoxy)-2-(trifluoromethyl)-2H-1-benzapyran-3-carboxylic acid] displayed a melting point of 206.8 to 207.4 °C.

As for `O=C(O)C1=Cc2cc(-c3ccccc3)ccc2OC1C(F)(F)F` (stereo not shown) [Example 132, 6-Phenyl-2-(trifluoromethyl)-2H-1-benzopyran-3-carboxylic acid], the melting point is 197 to 198 °C. Still for that read-out and setting: then `O=C(O)C1=Cc2cc(C#Cc3ccccc3)ccc2OC1C(F)(F)F` (stereo not shown) [Example 124, 6-(Phenylethynyl)-2-(trifluoromethyl)-2H-1-benzopyran-3-carboxylic acid], with 240.1 to 241.3 °C; and `O=C(O)C1=Cc2cc(OC(F)(F)F)ccc2NC1C(F)(F)F` (stereo not shown) [Example 162, 1,2-Dihydro-6-(trifluoromethoxy)-2-(trifluoromethyl)-3-quinolinecarboxylic acid], with 127.7 to 128.9 °C; and `COc1ccc(CN2c3ccc(Cl)cc3C=C(C(=O)O)C2C(F)(F)F)cc1` (stereo not shown) [Example 168, 6-Chloro-1,2-dihydro-2-(trifluoromethyl)-1-[[4-(methoxy)phenyl]methyl]-3-quinolinecarboxylic acid], with 196 to 197 °C.

Broadly, the IC50 is the concentration needed to halve the response being measured. A lower IC50 goes with inhibition by little substance. Broadly, the melting point is the temperature, or range, at which the solid turns liquid.
